Measured values as given in patent US6534070B1, “Composition with azelaic acid” (Schering Aktiengesellschaft, priority 1997, dated 2003).

Type: in vitro ADME, hairless mice (MF1 hr/hr Ola/Hsd)
Settings: MF1 hr/hr Ola/Hsd (hairless), mouse, 24 h
Text: The percutaneous resorption of azelaic acid was examined from hydrogel formulations according to the invention in comparison to Skinoren^(R) cream. The purpose of the study was to describe the bioavailability of azelaic acid in the skin, the penetration of azelaic acid through the skin and the dermal metabolism of azelaic acid. In this respect, various preparations that contain ^14C-labeled azelaic acid were applied in the in vitro model of the FRANZ diffusion chamber on the intact complete skin of hairless mice (MF1 hr/hr Ola/Hsd; supplier: Winkelmann, Germany). An amount of 10 to 15 mg of the following compositions was applied to a skin area of 2 cm^2:
The time behavior of the ^14C-azelaic acid was measured in the acceptor medium (Hepes Hanks Balanced Salt Solution: HHBSS), which flows along under the skin, at two-hour intervals over a period of 24 hours. In addition, at the end of each experiment, the radioactivity on the skin surface, in the stratum corneum and in the remaining skin was determined. […]
The ^14C-azelaic acid found in the skin at the end of the experiment was metabolized only to a proportion of 3 to 11%. Therefore, the data on the radioactivity in the skin can virtually be equated to the concentration of unchanged azelaic acid.

- proportion of 14C-azelaic acid found in the skin that was metabolized: 3 to 11%
Compound: O=C(O)CCCCCCCC(=O)O [^14C-azelaic acid, azelaic acid]
